Data set [1] has as its system Hbb^th3/+ mouse model of β-thalassemia intermedia. The experiment in a line: Combination study: erythroid differentiation stages in spleen by flow cytometry (Ter119/CD44/CD71). To be noted: for basophilic erythroblasts, frequency of parent / mature erythrocytes, frequency of parent / orthochromatic erythroblasts, frequency of parent / polychromatic erythroblasts, frequency of parent / pro-erythroblasts, frequency of parent: percent of parent Ter119+ spleen cells, female th3/+ mice, DFX 30 mg/kg QD, Fpn127 120 mg/kg QD p.o., end of study, mean. Format: in vivo. From the text: Distinct stages of erythroid cell differentiation in spleens of female mice were identified by flow cytometry (CANTOII cytometer, BD Biosciences) using PE-conjugated rat anti-mouse CD71 (transferrin receptor-1, eBioscience, Cat. 12-0711), APC-conjugated rat anti-mouse Ter119 (erythroid lineage marker, eBioscience, Cat. 17-5921) and APC-Cy7-conjugated rat anti-mouse CD44 (adhesion molecule that progressively decreases on the surface of developing erythroid cells, BioLegend. Cat. 103028) antibodies. Data were analyzed using FlowJo® software (FlowJo. LLC, version 10.1) Serum Parameters

The test system is the same in data set [2]. The experiment in a line: Combination study: serum iron (MULTIGENT Iron assay), transferrin ELISA and calculated TSAT. Format: in vivo. To be noted: for TSAT: calculated from Tf and serum iron, day 23, 1 h after last DFX dose, approx. 20 h after last Fpn127 dose; for TSAT / serum iron: th3/+ mice, all animals, mean; for serum iron: day 23, 1 h after last DFX dose (30 mg/kg), approx. 20 h after last Fpn127 dose (120 mg/kg). The procedure:
[…] Anesthetized animals were subsequently euthanized by cervical dislocation.
Serum levels of iron were determined in triplicates using MULTIGENT Iron assay (Abbott Diagnostics, Cat. 6K95). Serum Transferrin (TO was measured in duplicates using a mouse-specific ELISA according to the manufacturer's instructions (Abcam, Cat. ab157724). Transferrin saturation (TSAT) was calculated using the formula: […]

For data set [3] the test system is unchanged. To be noted: in vivo.
Protocol: The aim of this study was to test whether the concurrent use of the iron chelator DFX administered once daily (QD) alone at 30 mg/kg or in combination with Fpn127 administered QD at 120 mg/kg for 3 weeks is causing any therapeutic interactions in a mouse model of β-thalassemia intermedia (Hbb^th3/+; B6; 129P—b1tm1Unc-b2tm1Unc/J, Jackson Laboratories, Stock Number: 002683).
Animals were euthanized 1 h after the last dose of DFX on study day 23 (dosing day 17).
On the final study day (day 23), spleen, liver, and kidneys were collected and snap frozen in liquid nitrogen for further analysis, as outlined below. Wet weight of spleen, liver, and kidneys were recorded.
Content of total Fe was determined in pieces of spleens, livers, and kidneys by ICP-OES in the Analytical Development group of Vifor (International) Ltd., St. Gallen.
Individual wet weights of organs were recorded. Individual values of total Fe were measured in livers, spleens, and kidneys. Individual values of total Fe content and concentration were calculated. Mean±SD of total Fe concentration and content in livers, spleens, and kidneys was calculated for each group.
Data set [4] concerns Hbb^th3/+ mice. In words: Erythrocyte membrane-associated α-globin detection and quantification (TAU gel electrophoresis, densitometry). It counts as in vivo, mouse. To be noted: Hbb^th3/+ animals vs vehicle-treated; TAU gel electrophoresis (FIG. 1). From the text:
Fresh EDTA-blood samples of mice from each group were pooled (blood from 2 mice/pool), lysed, and membrane lipids were extracted, as previously described (Sorensen S, Rubin E, Polster H, Mohandas N, Schrier S. “The role of membrane skeletal-associated alpha-globin in the pathophysiology of beta-thalassemia.” Blood. 1990 Mar. 15; 75(6):1333-6). The insoluble membrane fraction was separated by electrophoresis on triton acetic acid urea (TAU) gels and visualized by Coomassie staining (Alter B et al, Br J Haematol 44:527, 1980). The signal intensity of the α-globin bands was quantified by densitometry using LAS-4000 Image Analyzer with Multi Gauge v.3 software (GE Healthcare Life Sciences).
Blood samples are washed three times with ice cold DPBS in the presence of 1 mM EDTA and lysed in an ice-cold hypotonic lysis buffer (5 mM sodium phosphate, pH 7.6 containing Complete Ultra protease inhibitors, Roche). The soluble Hb is collected to serve as standard on the gel. The erythrocyte ghosts are further washed three times by resuspending in hypotonic lysis buffer and centrifugation at 21'000×g. Membrane lipids are extracted in 50 mM sodium borate pH 8, 1 mM EDTA, 0.5% Triton X-100 (Sigma-Aldrich) and protease inhibitors. […]

Data set [5] has as its system rats. The experiment in a line: Serum iron after a single oral dose in rats. To be noted: single oral dose of 100 mg/kg in rats. Format: in vivo, rat.

Molecules are shown by their SMILES. Where “and” joins values, the source holds several entries; their conditions need not be identical. Identical values can stand only once.

Turning to `O=C(O)c1ccc(-n2nc(-c3ccccc3O)nc2-c2ccccc2O)cc1` [DFX, deferasirox, reference compound], in data set [1], the “basophilic erythroblasts, frequency of parent” value is on record as 8.21%; the “mature erythrocytes, frequency of parent” value was 32.35%; the “orthochromatic erythroblasts, frequency of parent” value stood at 23.48%; the “polychromatic erythroblasts, frequency of parent” value stood at 23.90%. Also, the “pro-erythroblasts, frequency of parent” value in data set [1] amounted to 3.29%. Also, in data set [2], the TSAT was 27.5%; the serum iron is 30.8 ± 5.9 µM and 30.8 µM. In data set [3], the “effect on kidney weight vs vehicle-treated Hbbth3/+ mice” value is listed as “no effect on kidney weight” and the “effect on liver weight vs vehicle-treated Hbbth3/+ mice” value is recorded as “no effect on liver weight”.
`O=C(NCc1ncccc1F)c1coc(CCNCCc2nc3ccccc3[nH]2)n1` [Fpn127]: the “levels of toxic α-globin/heme aggregates in RBC membrane skeleton preparations” value in data set [4] is given as “significant dose-dependent decrease”. Also, in data set [1] (Hbbth3/+ mice (FIG. 9)), the “RBC percentage in spleen” value is “increased” and the “percentage of immature erythroid cells in spleen” value was “markedly reduced”. In data set [1], the “basophilic erythroblasts, frequency of parent” value is 4.94%; the “mature erythrocytes, frequency of parent” value was determined as 53.52%; the “orthochromatic erythroblasts, frequency of parent” value is on record as 14.65%; the “polychromatic erythroblasts, frequency of parent” value came to 9.44%. In addition, in data set [1], the “pro-erythroblasts, frequency of parent” value was 1.74%. Besides, in data set [2] (Hbbth3/+ mice, day 23 (FIG. 10)), the “effect on TSAT” value is reported as “significantly decreased”. In data set [2], the TSAT is reported as 17.7%; the serum iron was 19.9 ± 3.3 µM and 19.9 µM. Further, the “effect on serum iron vs vehicle treated th3/+ and WT animals” value in data set [2] (day 23, last Fpn127 dose given 20 h before (FIG. 10)) is “significantly reduced”. Also, the “duration of reduction in serum iron” value in data set [5] is given as “at least 8 h”. In data set [3], the “effect on kidney weight vs vehicle-treated Hbbth3/+ mice” value is “no effect on kidney weight” and the “effect on liver weight vs vehicle-treated Hbbth3/+ mice” value is on record as “no effect on liver weight”.
